{
  "source": "patent US20220306603A1",
  "about": "“TARGETING DNA REPAIR IN TUMOR CELLS VIA INHIBITION OF ERCC1-XPF” (The Governors of the University of Alberta, priority 2019, published 2022)",
  "key": {"[1]": {"assay": "Stability of the compound over time", "type": "physicochemical"}, "ERCC1-XPF": {"target": "T1, ERCC1-XPF (Homo sapiens, UniProt Q92889)", "T1 construct": "His6; made in house; host or cells: E. coli BL21 (DE3)", "T1 sequence (Q92889 1-916)": "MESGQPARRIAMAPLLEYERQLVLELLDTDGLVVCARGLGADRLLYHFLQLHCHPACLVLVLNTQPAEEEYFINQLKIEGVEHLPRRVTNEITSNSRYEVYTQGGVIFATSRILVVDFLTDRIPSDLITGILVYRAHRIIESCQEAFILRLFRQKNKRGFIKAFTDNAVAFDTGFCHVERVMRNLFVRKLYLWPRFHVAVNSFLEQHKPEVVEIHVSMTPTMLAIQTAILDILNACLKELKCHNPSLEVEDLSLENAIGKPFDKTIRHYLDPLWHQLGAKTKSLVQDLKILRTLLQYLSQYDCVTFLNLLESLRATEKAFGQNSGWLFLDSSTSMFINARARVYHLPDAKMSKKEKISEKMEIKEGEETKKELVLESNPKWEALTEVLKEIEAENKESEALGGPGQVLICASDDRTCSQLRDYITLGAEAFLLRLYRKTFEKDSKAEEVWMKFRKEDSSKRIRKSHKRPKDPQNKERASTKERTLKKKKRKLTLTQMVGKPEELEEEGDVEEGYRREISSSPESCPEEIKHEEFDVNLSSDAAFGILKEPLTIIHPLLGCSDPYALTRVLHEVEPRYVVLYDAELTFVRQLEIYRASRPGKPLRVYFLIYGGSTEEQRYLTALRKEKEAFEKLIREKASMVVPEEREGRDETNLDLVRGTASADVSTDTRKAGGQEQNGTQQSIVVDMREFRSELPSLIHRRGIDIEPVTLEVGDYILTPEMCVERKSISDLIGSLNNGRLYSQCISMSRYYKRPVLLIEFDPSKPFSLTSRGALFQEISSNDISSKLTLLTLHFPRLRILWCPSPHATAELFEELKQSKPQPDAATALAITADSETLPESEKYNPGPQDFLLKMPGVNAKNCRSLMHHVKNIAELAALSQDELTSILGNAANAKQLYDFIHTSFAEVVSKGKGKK", "assay": "Microplate fluorescence incision assay of ERCC1-XPF endonuclease activity", "type": "biochemical", "details": "for IC50: at least three experiments of Vo versus concentration; for inhibition of ERCC1-XPF endonuclease activity (in words): compounds 10 μM each", "description": "This assay has been previously described (29), and utilizes a stem-loop substrate (composed of a 10mer-duplex stem and a 20mer-oligodT single-strand loop), labelled on the 5′-terminus with 6-FAM and 3′ with the quencher dabcyl.\nHuman ERCC1-XPF wild-type protein was obtained as previously described (29). Basically, the recombinant protein was expressed from a bicistronic plasmid (provided by Dr. Richard Wood, University of Texas MD Anderson Cancer Center, Smithville, Tex.) in the E. coli BL21 (DE3) strain. Since both XPF and ERCC1 contained a polyhistidine (His-6) tag, the proteins extracted from E. coli were incubated with a ProBond Nickel-Chelating Resin (Thermo Fisher Scientific). Protein eluted from the Ni affinity column was subsequently loaded into a Hi-trap heparin column (GE Healthcare). Fractions recovered from the heparin column that contained ERCC1-XPF were dialyzed, concentrated and stored at −80° C. in 10 mM HEPES pH 7.4, 2.5 mM p-mercaptoethanol, 0.01% CHAPS, 0.25 mM EDTA, 50% glycerol and 25 mM NaCl.\nA previously described protocol (2,29) was followed."}, "ERCC1-XPF complex": {"target": "T2, ERCC1-XPF complex (Homo sapiens, UniProt Q92889)", "T2 construct": "His6; made in house; host or cells: E. coli BL21 (DE3)", "T2 sequence (Q92889 1-916)": "T1 sequence (Q92889 1-916)", "assay": "Steady-state intrinsic tryptophan fluorescence quenching binding assay", "description": "Steady-state fluorescence spectra were measured at room temperature on a Perkin-Elmer LS-55 spectrofluorometer (Freemont, Calif.) with 5 nm spectral resolution for excitation and emission using 30-80 nM solution of purified recombinant ERCC1-XPF protein complex. […] In studying the effects of inhibitors on protein fluorescence intensities, additions to protein samples were made from inhibitors stock solutions, keeping the protein dilution below 3%."}, "HCT116 cells [2]": {"system": "HCT116 cells", "assay": "Cellular repair of UV-induced cyclobutane pyrimidine dimers (immunofluorescence)", "type": "cell-based, human", "details": "8 J/m^2 UV-C, up to 24 h post-irradiation", "description": "Protocol of Mirzayans et al. was followed with minor modifications (30). Approximately 1×10^5 HCT116 cells were seeded on each coverslip and allowed to attach overnight. Medium was then removed and cells were treated for one hour with the desired compound. The medium was removed, and cells were exposed to 8 J/m^2 UV-C radiation (G15T8 254 nm lamp, Ushio America Inc, Cypress, Calif.) followed by adding fresh medium containing the compound. Plates were incubated at 37° C. for different periods of time up to 24 hours and fixed in 50:50 methanol/1× phosphate-buffered saline (PBS) solution, followed by replacing the methanol/PBS solution with 100% methanol and incubation in −20° C. After 20 minutes, methanol was removed, and cells were treated with PBS for 5 minutes in room temperature. After fixing, cells were permeabilized in 0.5% Triton/PBS and washed with PBS, denatured in 2 N HCl, and neutralized by twice washing with 0.1 M borate buffer pH 8.5. Cells on cover slips were washed once with PBS followed by blocking with 5% non-fat dry milk/PBS for 30 minutes. Mouse anti-thymine dimer monoclonal antibody (Cat. No. MC-062, Kamiya Biomedical Company, Seattle, Wash.) was applied to the cover slips for one hour in the dark and at room temperature. Cells were then washed with PBS containing 0.1% Tween-20 and incubated with rabbit anti-mouse IgG-Alexafluor antibody (Invitrogen, Carlsbad, Calif.) followed by two washes with PBS/(0.1%)Tween-20. Cells on coverslips were then washed with PBS, rinsed with water, and mounted on slides using DAPI glycerol mounting solution. Slides were kept at 4° C. before fluorescent microscopic evaluation and measurement of fluorescence intensity with MetaXpress Version: 6.2.1.704 software (Molecular Devices, Sunnyvale, Calif.).\nTo test for inhibition of nucleotide excision repair, we monitored the cellular removal of UVC-induced cyclobutane pyrimidine dimers (CPDs) in HCT116 cells over a 24-hour period using an immunochemical assay."}, "[3]": {"assay": "ADME screening: solubility", "type": "physicochemical", "details": "Table 8"}, "[4]": {"assay": "Microsomal stability in vitro (human liver microsomes)", "details": "Table 8"}, "[5]": {"assay": "ADME screening: cell permeability and efflux ratio", "details": "Table 8"}, "HCT116 cells [6]": {"system": "HCT116 cells", "assay": "Clonogenic survival assay, cyclophosphamide treatment", "type": "cell-based, human", "details": "cyclophosphamide 0-300 μM; compound 1-4 μM", "description": "Plates were incubated for another 8 days at 37° C. in a 5% CO2 atmosphere for colony formation. After this period plates were stained with crystal violet, colonies were counted, and plating efficiency and surviving fraction were calculated."}},
  "note": "“Also recorded” adds a separate entry of the source. Like-named read-outs stand apart in the source and are kept apart here.",
  "data": [
    {"compound": "COc1ccc2nc3cc(Cl)ccc3c(Nc3ccc(O)c(CN4CCN(Cc5cccc(C)c5)CC4)c3)c2c1", "note": "[Compound A2, 4-((6-Chloro-2-methoxyacridin-9-yl)amino)-2-((4-(3-methylbenzyl)piperazin-1-yl)methyl)phenol]", "values": [
      {"measurement": "stability over time (in words)", "setting": "[1]", "value": "instability over time"}
    ]},
    {"compound": "COc1ccc2nc3cc(Cl)ccc3c(Nc3ccc(O)c(CN4CCN(C5CCCCC5)CC4)c3)c2c1", "note": "[Compound A3, 4-((6-Chloro-2-methoxyacridin-9-yl)amino)-2-((4-cyclohexylpiperazin-1-yl)methyl)phenol]", "values": [
      {"measurement": "IC50", "setting": "ERCC1-XPF; Table 6, 30 minutes incubation, 5% DMSO, read-out: IC50 ± SD", "value": "380 ± 100", "unit": "nM"},
      {"measurement": "inhibition of ERCC1-XPF endonuclease activity (in words)", "setting": "ERCC1-XPF", "value": "marked capacity to inhibit; also recorded: potent inhibitors"},
      {"measurement": "Kd", "setting": "ERCC1-XPF complex; Table 6, read-out: Kd ± SD", "value": "145 ± 5", "unit": "nM"}
    ]},
    {"compound": "COc1ccc2nc3cc(Cl)ccc3c(Nc3ccc(O)c(CN4CCN(c5ccc(Cl)c(Cl)c5)CC4)c3)c2c1", "note": "[Compound A5, 4-((6-Chloro-2-methoxyacridin-9-yl)amino)-2-((4-(3,4-dichlorophenyl)piperazin-1-yl)methyl)phenol]", "values": [
      {"measurement": "inhibition of ERCC1-XPF endonuclease activity (in words)", "setting": "ERCC1-XPF", "value": "very limited inhibition"},
      {"measurement": "inhibition of cellular removal of CPDs / thymidine dimers (in words)", "setting": "HCT116 cells [2]", "value": "failed to inhibit the cellular removal of CPDs"},
      {"measurement": "quenching of protein fluorescence at 330 nm", "setting": "ERCC1-XPF complex; 2 μM compound, excitation 295 nm", "value": "3±1", "unit": "%"}
    ]},
    {"compound": "COc1ccc2nc3cc(Cl)ccc3c(Nc3cc(CN4CCCC4)c(O)c(CN4CCCC4)c3)c2n1", "note": "[Compound D4, pyronaridine, reference compound]", "values": [
      {"measurement": "IC50", "setting": "ERCC1-XPF; Table 7, read-out: IC50", "value": "321 ± 22", "unit": "nM"},
      {"measurement": "inhibition of ERCC1-XPF endonuclease activity (in words)", "setting": "ERCC1-XPF", "value": "potent inhibitor; also recorded: strong inhibitory effect"},
      {"measurement": "Kd", "setting": "ERCC1-XPF complex; Table 7, read-out: Kd protein", "value": "150 ± 10", "unit": "nM"},
      {"measurement": "Solubility (in words)", "setting": "[3]", "value": "Highly soluble"},
      {"measurement": "LogD (rating)", "setting": "ADME screening: LogD; Table 8", "value": "Good"},
      {"measurement": "logD", "setting": "ADME screening: LogD; pH 7.4", "value": 2.31},
      {"measurement": "Microsomal stability in vitro CLint (in words)", "setting": "[4]", "value": "Moderate"},
      {"measurement": "Cell permeability (Mean recovery %) (in words)", "setting": "[5]", "value": "Low (common)"}
    ]},
    {"compound": "CN1CCN(Cc2cc(N)ccc2O)CC1", "note": "[Gen B4]", "values": [
      {"measurement": "inhibition of ERCC1-XPF endonuclease activity (in words)", "setting": "ERCC1-XPF", "value": "complete loss of inhibition"}
    ]},
    {"compound": "CN1CCN(Cc2cc(Nc3c4ccc(Cl)cc4nc4ccc(O)cc34)ccc2O)CC1", "note": "[Gen B5]", "values": [
      {"measurement": "inhibition of ERCC1-XPF endonuclease activity (in words)", "setting": "ERCC1-XPF", "value": "marked capacity to inhibit"}
    ]},
    {"compound": "COc1ccc2nc3cc(Cl)ccc3c(Nc3ccc(O)c(CN4CCN(CCNc5ccccc5)CC4)c3)c2c1", "note": "[Gen C-5, 4-((6-Chloro-2-methoxyacridin-9-yl)amino)-2-((4-(2-(phenylamino)ethyl)piperazin-1-yl)methyl)-phenol]", "values": [
      {"measurement": "sensitisation to cyclophosphamide, clonogenic survival (in words)", "setting": "HCT116 cells [6]", "value": "no significant sensitisation effect"}
    ]}
  ]
}
